Measured values as given in PubChem BioAssay (NCI).
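Dose response: 5 concentrations. Exposure: 48 h. Format: 96-well plates. Endpoint: linear interpolation; highest concentration if not reached. GI50 is the concentration that inhibits growth by half. At the TGI there is no net growth.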

Key:
Assay in all cases: NCI anticancer screen, dose series, 48 h
[1] = tested on: CCRF-CEM leukemia
[2] = tested on: U251 CNS
[3] = tested on: SW-620 colon
[4] = tested on: ACHN renal
[5] = tested on: HOP-62 NSCLC
[6] = tested on: SK-OV-3 ovarian
[7] = tested on: MDA-MB-435
[8] = tested on: NCI/ADR-RES ovarian
[9] = tested on: A549 NSCLC
[10] = tested on: OVCAR-3 ovarian
[11] = tested on: HT29 colon
[12] = tested on: MCF7 breast
[13] = tested on: NCI-H226 lung
[14] = tested on: HCC-2998 colon
[15] = tested on: DU-145 prostate
[16] = tested on: SF-539 CNS
[17] = tested on: RPMI-8226 leukemia
[18] = tested on: KM12 colon
[19] = tested on: NCI-H23 lung
[20] = tested on: UO-31 renal
[21] = tested on: SF-268 CNS
[22] = tested on: HCT-116 colon
[23] = tested on: PC-3 prostate
[24] = tested on: MALME-3M melanoma
[25] = tested on: RXF 393 renal
[26] = tested on: IGROV1 ovarian
[27] = tested on: TK-10 renal
[28] = tested on: UACC-257 melanoma
[29] = tested on: MDA-MB-231 breast
[30] = tested on: SK-MEL-28 melanoma
[31] = tested on: A498 renal
[32] = tested on: 786-0 renal
[33] = tested on: SR leukemia
[34] = tested on: OVCAR-5 ovarian
[35] = tested on: OVCAR-8 ovarian
[36] = tested on: COLO 205 colon
[37] = tested on: T-47D breast
[38] = tested on: NCI-H522 lung
[39] = tested on: EKVX NSCLC
[40] = tested on: SK-MEL-5 melanoma
[41] = tested on: HCT-15 colon
[42] = tested on: HS 578T breast
[43] = tested on: MOLT-4 leukemia
[44] = tested on: SN12C renal
[45] = tested on: BT-549 breast
[46] = tested on: UACC-62 melanoma
[47] = tested on: NCI-H460 lung
[48] = tested on: OVCAR-4 ovarian
[49] = tested on: SNB-19 CNS
[50] = tested on: HL-60(TB) leukemia
[51] = tested on: SF-295 CNS
[52] = tested on: K-562 leukemia
[53] = tested on: SK-MEL-2 melanoma
[54] = tested on: LOX IMVI melanoma
[55] = tested on: HOP-92 NSCLC
[56] = tested on: SNB-75 CNS
[57] = tested on: M14 melanoma
[58] = tested on: CAKI-1 renal

CC(O[Si](C)(C)C(C)(C)C)[C@H](NC(=O)OCC(Cl)(Cl)Cl)C(=O)O (some centres undefined)
TGI [1]: > 100 µM | TGI [2]: > 100 µM | TGI [3]: > 100 µM | TGI [4]: > 100 µM | TGI [5]: > 100 µM | TGI [6]: > 100 µM | TGI [7]: > 100 µM | TGI [8]: > 100 µM | TGI [9]: > 100 µM | TGI [10]: > 100 µM | TGI [11]: > 100 µM | TGI [12]: > 100 µM | TGI [13]: > 100 µM | TGI [14]: > 100 µM | TGI [15]: > 100 µM | TGI [16]: > 100 µM | TGI [17]: > 100 µM | TGI [18]: > 100 µM | TGI [19]: > 100 µM | TGI [20]: > 100 µM | TGI [21]: > 100 µM | TGI [22]: > 100 µM | TGI [23]: > 100 µM | TGI [24]: > 100 µM | TGI [25]: > 100 µM | TGI [26]: > 100 µM | TGI [27]: > 100 µM | TGI [28]: > 100 µM | TGI [29]: > 100 µM | TGI [30]: > 100 µM | TGI [31]: > 100 µM | TGI [32]: > 100 µM | TGI [33]: > 100 µM | TGI [34]: > 100 µM | TGI [35]: > 100 µM | TGI [36]: > 100 µM | TGI [37]: > 100 µM | TGI [38]: > 100 µM | TGI [39]: > 100 µM | TGI [40]: > 100 µM | TGI [41]: > 100 µM | TGI [42]: > 100 µM | TGI [43]: > 100 µM | TGI [44]: > 100 µM | TGI [45]: > 100 µM | TGI [46]: > 100 µM | TGI [47]: > 100 µM | TGI [48]: > 100 µM | TGI [49]: > 100 µM | TGI [50]: > 100 µM | TGI [51]: > 100 µM | TGI [52]: > 100 µM

C[C@]12CC[C@H]3[C@@H](C[C@@H]4SC(Nc5cccc(F)c5)=N[C@@]45CC(=O)CC[C@]35C)[C@@H]1CCC2=O
GI50 [1]: 1.9 µM | TGI [1]: > 100 µM | GI50 [2]: 1.59 µM | TGI [2]: 3.68 µM | GI50 [3]: 2.33 µM | TGI [3]: 4.99 µM | GI50 [4]: 1.78 µM | TGI [4]: 3.24 µM | GI50 [5]: 2.07 µM | TGI [5]: 5.34 µM | GI50 [6]: 2.33 µM | TGI [6]: 6.1 µM | GI50 [7]: 2.74 µM | TGI [7]: 13.1 µM | GI50 [8]: 2.81 µM | TGI [8]: 17.2 µM | GI50 [9]: 2.58 µM | TGI [9]: 7.5 µM | GI50 [10]: 1.72 µM | TGI [10]: 3.3 µM | GI50 [11]: 1.49 µM | TGI [11]: 3.51 µM | GI50 [12]: 1.37 µM | TGI [12]: 3.28 µM | GI50 [13]: 2.35 µM | TGI [13]: 5.7 µM | GI50 [14]: 3.55 µM | TGI [14]: 14.6 µM | GI50 [15]: 1.93 µM | TGI [15]: 4.87 µM | GI50 [16]: 1.34 µM | TGI [16]: 2.94 µM | GI50 [17]: 0.865 µM | TGI [17]: 3.9 µM | GI50 [18]: 3 µM | TGI [18]: 12.4 µM | GI50 [19]: 2.27 µM | TGI [19]: 9.08 µM | GI50 [20]: 1.67 µM | TGI [20]: 3.59 µM | GI50 [21]: 3.09 µM | TGI [21]: 11.1 µM | GI50 [22]: 1.59 µM | TGI [22]: 3.24 µM | GI50 [23]: 1.88 µM | TGI [23]: 3.87 µM | GI50 [24]: 1.94 µM | TGI [24]: 5.04 µM | GI50 [25]: 1.45 µM | TGI [25]: 3.25 µM | GI50 [53]: 1.86 µM | TGI [53]: 5.2 µM | GI50 [26]: 1.89 µM | TGI [26]: 3.83 µM | GI50 [27]: 1.97 µM | TGI [27]: 4.15 µM | GI50 [28]: 5.47 µM | TGI [28]: 64.5 µM | GI50 [29]: 2.11 µM | TGI [29]: 4.59 µM | GI50 [30]: 1.52 µM | TGI [30]: 4.27 µM | GI50 [31]: 2.16 µM | TGI [31]: 6.77 µM | GI50 [54]: 1.67 µM | TGI [54]: 3.21 µM | GI50 [32]: 1.43 µM | TGI [32]: 2.83 µM | GI50 [34]: 2.73 µM | TGI [34]: 18 µM | GI50 [35]: 2.79 µM | TGI [35]: 7.98 µM | GI50 [36]: 2.16 µM | TGI [36]: 4.81 µM | GI50 [37]: 2.22 µM | TGI [37]: 6.95 µM | GI50 [38]: 1.63 µM | TGI [38]: 3.06 µM | GI50 [39]: 2.5 µM | TGI [39]: 18.5 µM | GI50 [40]: 2.02 µM | TGI [40]: 4.32 µM | GI50 [41]: 1.58 µM | TGI [41]: 4.08 µM | GI50 [42]: 3.14 µM | TGI [42]: > 100 µM | GI50 [43]: 1.68 µM | TGI [43]: 28.3 µM | GI50 [44]: 2.36 µM | TGI [44]: 6.02 µM | GI50 [45]: 1.54 µM | TGI [45]: 3.61 µM | GI50 [55]: 2.25 µM | TGI [55]: 4.17 µM | GI50 [46]: 1.54 µM | TGI [46]: 3.12 µM | GI50 [56]: 1.52 µM | TGI [56]: 4.94 µM | GI50 [47]: 2.52 µM | TGI [47]: 5.58 µM | GI50 [57]: 2.36 µM | TGI [57]: 7.23 µM | GI50 [48]: 2.71 µM | TGI [48]: > 100 µM | GI50 [49]: 2.33 µM | TGI [49]: 5.69 µM | GI50 [50]: 2.73 µM | TGI [50]: 8 µM | GI50 [51]: 1.19 µM | TGI [51]: 2.97 µM | GI50 [58]: 1.99 µM | TGI [58]: 5.73 µM
